We go through 4 compounds from patent publication US8828997B2, “2,3-dihydro-1H-imidazo(1,2-a)pyrimidin-5-one derivatives, preparation thereof, and pharmaceutical use thereof” (Sanofi, priority 2009, dated 2014).

Holding throughout (assay type): cell-based
In experiment [1] the test system is AKT protein phosphorylated on serine 473 (P-AKT-S473) in PC3 human prostate carcinoma cells. Briefly: pAKT expression in PC3 human prostate carcinoma cells measured by MSD Multi-spot Biomarker detection (test B). Particulars: Homo sapiens, PC-3, P-AKT-S473, PC3 cells, MSD sandwich immunoassay, 1 to 2 h incubation, absolute IC50. The method, then:
The inhibitory activity of the molecules on AKT phosphorylation is measured either by western blotting using the technique described below, or by the MSD Multi-spot Biomarker detection technique from Meso Scale Discovery also described below.
Study of pAKT Expression in PC3 Human Prostate Carcinoma Cells Measured by the MSD Multi-Spot Biomarker Detection Technique from Meso Scale Discovery (Test B):
This test is based on measuring the expression of the AKT protein phosphorylated on serine 473 (P-AKT-S473), in the PC3 human prostate carcinoma line, by means of the technique based on a sandwich immunoassay using the MSD Multi-spot Biomarker Detection kit from Meso Scale Discovery: phospho-Akt (Ser473) whole cell lysate kit (#K151CAD) or phospho-Akt (Ser473)/Total Akt whole cell lysate kit (#K151OOD). The primary antibody specific for P-AKT-S473 (Kit #K151CAD) is coated onto an electrode in each well of the 96-well plates of the MSD kit: after the addition of a protein lysate to each well, the signal is visualised by adding a secondary detection antibody labelled with an electrochemoluminescent compound. The procedure followed is that described in the kit.
On day 1, the PC3 cells are seeded into 96-well plates (TPP, #92096) at the concentration of 35 000 cells/well in 200 μl of DMEM medium (DMEM Gibco #11960-044) containing 10% of foetal calf serum (FCS Gibco, #10500-056) and 1% glutamine (L-Glu Gibco #25030-024), and incubated at 37° C., 5% CO2, overnight.
On day 2, the cells are incubated in the presence or absence of the test products for 1 to 2 h at 37° C. in the presence of 5% of CO2. The molecules, diluted in dimethyl sulphoxide (DMSO Sigma #D2650), are added from a 20-times concentrated stock solution, the final percentage of DMSO being 0.1%. The molecules are tested either at a single concentration of less than or equal to 10 μM, or at increasing concentrations in a range that can extend from less than 1 nM to 10 μM.
After this incubation, the cells are lysed for the preparation of the proteins. For this, after the culture medium has been drawn off, 50 μl of complete Tris Lysis Buffer of the MSD kit containing the protease and phosphatase inhibitor solutions are added to the wells and the cells are lysed for 1 h at 4° C. with shaking. At this stage, the plates containing the lysates can be stored at −20° C. or at −80° C.
The wells of the 96-well plates of the MSD kit are saturated for 1 h at ambient temperature with the blocking solution of the MSD kit. Four washes are carried out with 150 μl of Tris Wash Buffer of the MSD kit. The lysates previously prepared are transferred into the 96-well multi-spot plates of the MSD kit and incubated for 1 h at ambient temperature, with shaking. Four washes are carried out with 150 μl of Tris Wash Buffer of the MSD kit. 25 μl of the MSD sulfo-tag detection antibody solution are added to the wells and incubated for 1 h at ambient temperature, with shaking. Four washes are carried out with 150 μl of Tris Wash Buffer of the MSD kit. 150 μl of Read Buffer of the MSD kit are added to the wells and the plates are read immediately on the S12400 instrument from Meso Scale Discovery.
The instrument measures a signal for each well. Wells without cells and containing the lysis buffer serve to determine the background noise that will be subtracted from all the measurements (min). The wells containing cells in the absence of product and in the presence of 0.1% DMSO are considered to be the 100% signal (max). The percentage inhibition is calculated for each concentration of test product according to the following formula: (1-((test−min)/(max−min)))×100.
The activity of the product is translated to IC50, obtained from a dose-response curve of the various concentrations tested and representing the dose giving 50% specific inhibition (absolute IC50). 2 independent experiments make it possible to calculate the mean of the IC50 values.

Experiment [2] has as its system P. falciparum (highly chloroquine-resistant strain Fcm29-Cameroon). Briefly: Antimalarial activity test (radioactive micromethod of Desjardins, tritiated hypoxanthine incorporation). As to conditions: Plasmodium falciparum, Erythrocyte, infected human erythrocytes, 48 h. The protocol:
Antimalarial Activity Test
The antimalarial activity tests are carried out according to the radioactive micromethod of Desjardins (R. E. Desjardins, C. J. Canfield, J. D. Haynes, J. D. Chulay, Antimicrob. Agents Chemother., 1979, 16, 710-718). The assays are carried out in 96-well microplates (Test Plates Ref. 92696, Techno Plastic Products Ag, Zollstrasse 155, CH-8219 Trasadingen). The P. falciparum strains are cultured in solutions of RPMI 1640 supplemented with 5% of human serum with a haematocrit at 2% and a blood parasite concentration at 1.5%. For each assay, the parasites are incubated with selected concentrations of drugs for 48 h at 37° C. in a humid atmosphere and at 5% CO2. Artemisinin, artesunate and also chloroquine diphosphate are used as reference molecules. The first dilution of the drug is prepared at 1 mg/ml in dimethyl sulphoxide. The range of dilutions of the successive daughter solutions is also prepared in dimethyl sulphoxide. Each daughter dilution is subsequently diluted to 1/50 in RPMI 1640 supplemented with 5% of human serum, all the dilutions being carried out at 37° C. These dilutions are then added to the parasites in culture in the microplates. After addition of the drug, the parasites are in culture in RPMI 1640 containing 5% of human serum and 1% of dimethyl sulphoxide. The parasite growth is measured by incorporation of tritiated hypoxanthine (added 24 h after the beginning of the exposure to the drug) compared with the incorporation in the absence of drug.
The activity of the product is translated to % inhibition of the growth of P. falciparum (highly chloroquine-resistant strain Fcm29-Cameroon) at 1 μM and 0.1 μM in an in vitro test using infected human erythrocytes.

Experiment [3] deals with translocation of the LC3 protein in Hela GFP-LC3 cells. Briefly: Translocation of the LC3 protein in Hela human cells measured by image analysis cytometry (test C, autophagy). Particulars: Homo sapiens, HeLa, 2 h, EBSS + 10 μM hydroxychloroquine, cells with LC3 granulations, absolute IC50. The method, then: Inhibitory activity of the molecules on autophagy is measured by means of the translocation of the LC3 protein from the cytoplasm to the autophagosomes. For this, Hela cells were transfected with a vector encoding the chimeric protein GFP-LC3. A Hela clone stably expressing the GFP-LC3 protein was selected.
Study of the Translocation of the LC3 Protein in Hela Human Cells, Measured by Image Analysis Cytometry (Test C):
On day 1, the Hela GFP-LC3 cells are seeded into 96-well plates coated with poly-D-lysine (Greiner, #655946) at the concentration of 15000 cells/well in 200 μl of DMEM medium (DMEM Gibco #11960-044) containing 10% of foetal calf serum (FCS Gibco, #10500-056) and 1% glutamine (L-Glu Gibco #25030-024), and incubated at 37° C., 5% CO2, overnight.
On day 2, the cells are washed twice with EBSS (Sigma #E3024). The cells are then incubated in EBSS, 10 μM hydroxychloroquine and test products, for 2 hours at 37° C. in the presence of 5% CO2. The molecules are diluted in dimethyl sulphoxide (DMSO Sigma #D2650), the final DMSO percentage being 0.1%. The molecules are tested at increasing concentrations in a range that can extend from 10 nM to 1 μM.
After this incubation, the cells are fixed with 4% paraformaldehyde (Sigma #HT501128 4L) for 10 min. The cells are then washed twice with PBS and the nuclei then stained with 2 μg/ml of Hoechst 33342 (Invitrogen #H3570). The 96-well plates are then read with the iCyte image analysis cytometer (Compucyte).
The activity of the product is translated to IC50, obtained from a dose-response curve of various concentrations tested and representing the dose giving 50% specific inhibition (absolute IC50). 2 independent experiments make it possible to calculate the mean of the IC50 values.

As usually defined, the pIC50 is the negative decadic logarithm of the IC50, by convention in mol/L. What is called inhibition is the relative decrease from the control value, in per cent.

pIC50: −log10 of the molar value.

In experiment [1], `COc1cccc(CCN2c3nc(N4CCOCC4)cc(=O)n3C[C@@]2(C)C(F)(F)F)c1` [Example 26, (2S)-1-[2-(3-Methoxyphenyl)ethyl]-2-methyl-7-(morpholin-4-yl)-2-(trifluoromethyl)-2,3-dihydroimidazo[1,2-a]pyrimidin-5(1H)-one] gave a pIC50 of 7.80. In experiment [2], the inhibition at 0.1 µM worked out at 14% and the inhibition at 1 µM came to 75%.
On to `C[C@@]1(C(F)(F)F)Cn2c(nc(N3CCOCC3)cc2=O)N1CCc1ccccc1Cl` [Example 27, (2S)-1-[2-(2-Chlorophenyl)ethyl]-2-methyl-7-(morpholin-4-yl)-2-(trifluoromethyl)-2,3-dihydroimidazo[1,2-a]pyrimidin-5(1H)-one], for which the values for the pIC50 in experiment [3] and in experiment [1] were 7.29 and 7.62, respectively. The inhibition at 1 µM in experiment [2] is 53%.
As to `C[C@@]1(C(F)(F)F)Cn2c(nc(N3CCOCC3)cc2=O)N1CCc1ccc(Cl)cc1` [Example 28, (2S)-1-[2-(4-Chlorophenyl)ethyl]-2-methyl-7-(morpholin-4-yl)-2-(trifluoromethyl)-2,3-dihydroimidazo[1,2-a]pyrimidin-5(1H)-one], the pIC50 in experiment [3] was 6.70. The compound further gave a pIC50 in experiment [1] of 8.00. In addition, in experiment [2], the inhibition at 0.1 µM was 14% and the inhibition at 1 µM was found to be 53%.
Take `C[C@@]1(C(F)(F)F)Cn2c(nc(N3CCOCC3)cc2=O)N1CCc1cccc(Cl)c1` [Example 29, (2S)-1-[2-(3-Chlorophenyl)ethyl]-2-methyl-7-(morpholin-4-yl)-2-(trifluoromethyl)-2,3-dihydroimidazo[1,2-a]pyrimidin-5(1H)-one]: the pIC50 in experiment [3] is 6.58; in experiment [1] it was 8.22. Besides, in experiment [2], the inhibition at 1 µM came to 52%.
